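Grown in 96-well plates, cells were treated for 48 hours with each compound at five concentrations. Insufficient inhibition: endpoint recorded as highest concentration tested. GI50 marks 50% less growth. TGI is the concentration that stops growth completely.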
Key:
Experiment in all cases: DTP human tumour cell line panel, 48 h
[1] = tested on: SF-295 CNS
[2] = tested on: IGROV1 ovarian
[3] = tested on: OVCAR-4 ovarian
[4] = tested on: UO-31 renal
[5] = tested on: MALME-3M melanoma
[6] = tested on: HOP-62 NSCLC
[7] = tested on: ACHN renal
[8] = tested on: SK-OV-3 ovarian
[9] = tested on: MOLT-4 leukemia
[10] = tested on: SN12C renal

SMILES | TGI [1] | TGI [2] | TGI [3] | TGI [4] | TGI [5] | TGI [6] | TGI [7] | TGI [8] | TGI [9] | TGI [10] | GI50 [1] | GI50 [2] | GI50 [3] | GI50 [4] | GI50 [5] | GI50 [6] | GI50 [7] | GI50 [8] | GI50 [9] | GI50 [10]
NC1=C(O)C(=O)C(c2c[nH]c3ccc(OCc4ccccc4)cc23)O1 (centres undefined) | > 100 µM | > 100 µM | > 100 µM | > 100 µM | > 100 µM | > 100 µM | > 100 µM | > 100 µM | > 100 µM | > 100 µM |  |  |  |  |  |  |  |  |  | 
CCOC(=O)CC(C)C1(C=O)CCCCC1=O (centres undefined) | > 100 µM | > 100 µM | > 100 µM | > 100 µM | > 100 µM | > 100 µM | > 100 µM | > 100 µM | > 100 µM | > 100 µM |  |  |  |  |  |  |  |  |  | 
CCOC(=O)N(O)c1ccc(/C=C/c2ccccc2)cc1 | 22.1 µM | 3.21 µM | > 84.2 µM | 36.4 µM | 61.4 µM | > 59 µM | > 93.7 µM | > 100 µM | 51.3 µM | > 100 µM | 2.45 µM | 0.319 µM | 7.21 µM | 6.03 µM | 19.5 µM | 7.45 µM | 8.38 µM | 23.6 µM | 11 µM | 14.7 µM
O=C1C=CC(=O)c2c(O)c(N(CCCl)CCCl)c(Cl)c(O)c21 | > 10 µM | > 7.99 µM | 6.24 µM | > 7.1 µM | 5.79 µM | > 10 µM | 5.6 µM | > 10 µM | > 10 µM | > 7.71 µM |  |  |  |  |  |  |  |  |  | 
CC(=O)[O][Hg][c]1s[c]([Hg][O]C(C)=O)[c]([Hg][O]C(C)=O)[c]1[Hg][O]C(C)=O | 40.1 µM | 23.4 µM | 87.7 µM |  | 17.2 µM | 16.5 µM | > 100 µM | 9.2 µM | 17.5 µM | > 100 µM | 13.5 µM | 3.61 µM | 12.7 µM | 4.61 µM | 3.16 µM | 4.91 µM | 19.3 µM | 2.34 µM | 2.26 µM | 8.33 µM
N=C1C=C(N)C(=O)c2ccccc21 | 1.53 µM | 0.42 µM | 0.243 µM | 0.32 µM | 0.321 µM | 0.435 µM | 0.369 µM | 2.86 µM | 0.558 µM | 0.376 µM | 0.639 µM | 0.203 µM | 0.103 µM | 0.153 µM | 0.173 µM | 0.204 µM | 0.182 µM | 1.51 µM | 0.215 µM | 0.188 µM
CN1C/C(=C\c2ccc(C(=O)O)cc2)C(=O)/C(=C/c2ccc(C(=O)O)cc2)C1 | > 100 µM | > 100 µM | > 100 µM | > 100 µM | > 100 µM | > 100 µM | > 100 µM | > 100 µM | > 100 µM | > 100 µM |  |  |  |  |  |  |  |  |  | 
NC1=Nc2ccccc2Sc2ccccc21 | > 100 µM | > 100 µM | > 100 µM | > 100 µM | > 100 µM | > 100 µM | > 100 µM | > 100 µM | > 100 µM | > 100 µM |  |  |  |  |  |  |  |  |  | 
CC[C@@H](C(=O)[C@@H](C)[C@@H](O)[C@H](C)[C@@H]1O[C@@H]([C@@H](CC)C(=O)O)CC[C@@H]1C)[C@H]1O[C@]2(C=C[C@@H](O)[C@]3(CC[C@@](C)([C@H]4CC[C@](O)(CC)[C@H](C)O4)O3)O2)[C@H](C)C[C@@H]1C | 7.71 µM | > 84.7 µM | 34 µM | 25.5 µM | 1.81 µM | 16.9 µM | 49.2 µM | 48 µM | 5.17 µM | 44.8 µM | 0.447 µM | 2.05 µM | 1.12 µM | 1.05 µM | 0.416 µM | 1.12 µM | 1.39 µM | 3.6 µM | 0.911 µM | 0.226 µM
COC(=O)C(=O)C(C#N)c1c(Cl)cccc1Cl (centres undefined) | > 100 µM | > 100 µM | > 100 µM | > 100 µM | > 100 µM | > 100 µM | > 100 µM | > 100 µM | > 100 µM | > 100 µM |  |  |  |  |  |  |  |  |  | 
